Assay results taken from US11766467B2, “Methods of treating wounds using cathepsin K inhibitors” (University of Wyoming, priority 2017, dated 2023).

What was measured:
[1] = test system: full-thickness wounds in diabetic pigs; test: porcine diabetic (streptozotocin) wound healing model, full-thickness wounds, intradermal injections; format: in vivo; settings: for wound closure: both the higher (300 ng/mm^2) and lower (30 ng/mm^2) doses; for wound closure / wound healing (in words): diabetic pigs
Experimental: Odanacatib is a potent and selective inhibitor of cathepsin K and can be administered to promote wound healing in diabetic pigs. Pigs (3-4 months old) were rendered diabetic with intravenous injection of streptozotocin (75 mg/Kg). Four weeks following streptozotocin injections 6-10 full-thickness (one-inch square, ˜[…] thickness) wounds were created in two columns on each side of the dorsal thoracolumbar midline. […] Wounds were photographed prior to treatment and analyzed for wound closure rates.
Data are expressed as mean±SEM (n=8 for vehicle and 6 each for odanacatib treatment). […] Because some values are missing as we had euthanized one pig from each group on day 14 for molecular analysis, the data were analyzed by fitting a mixed model, rather than by repeated measures ANOVA. […]

[2] = test system: cultured human fibroblasts; test: in vitro monolayer wound-healing assay (cell migration under high glucose); format: cell-based; settings: high glucose 25 mM, 100 ng/ml inhibitor, 5 μg/ml hydroxyurea, 72 h after wounding
Experimental: Referring now to FIGS. 1A-1B, the in vitro monolayer wound-healing assay mimics cell migration during wound healing. An in vitro monolayer wound-healing assay in cultured human fibroblasts was used to test whether pharmacological inhibition of cathepsin K affected cell migration under high-glucose (25 mM) conditions. Mannitol was included to control for osmotic pressure and hydroxyurea to eliminate the potential effects of cell proliferation.
Referring again to FIGS. 1A-1B, inhibition of cathepsin reverses the inhibitory effect of high glucose (HG) on cell migration in a monolayer wound-healing assay. Confluent human fibroblasts were serum starved and subjected to a media containing low (5 mM, LG) or high (25 mM, HG) glucose. The cell monolayer was wounded with a linear scratch using a sterile pipette tip and treated with 100 ng/ml of cathepsin K inhibitor-II in the presence of 5 μg/ml hydroxyurea. At 0 time (upper left panel) and 72 h (lower left panel) after wounding, the cells were photographed using an inverted microscope equipped with a digital camera. Scale bar=600 μm. FIG. 1A. Representative phase-contrast images for each treatment group. FIG. 1B. Bar graph represents the percentage wound closure 72 h after wounding as measured using the NIH Image J software and represented as mean±SEM, n=6, *p<0.01 compared to LG; **p<0.05 compared to LG.

[3] = test system: excisional skin wounds in genetically diabetic db/db mice; test: excisional skin wound healing in genetically diabetic db/db mice, topical inhibitor; format: in vivo; settings: treated along the circumference of the wound
Experimental: FIG. 5 illustrates the effect of a topically delivered pharmacological inhibitor of cathepsin K on wound healing in genetically diabetic mice. Excisional skin wounds were created in genetically diabetic db/db mice and the wounds were treated along the circumference of the wounds with cathepsin K inhibitor II or vehicle. Wound healing was evaluated by measuring the wound closure rate and histomorphometric analysis. […] In contrast, wounds in the vehicle treated group remain unhealed during this time period. Heterozygous (db/db^+/−) mice were used as controls in these studies.

CC(C)(F)C[C@H](N[C@@H](c1ccc(-c2ccc(S(C)(=O)=O)cc2)cc1)C(F)(F)F)C(=O)NC1(C#N)CC1 [odanacatib]
wound closure ([1]; day 21 post-wounding): ~93%

CC(C)C[C@H](NC(=O)OCc1ccccc1)C(=O)NNC(=O)NNC(=O)[C@H](CC(C)C)NC(=O)[C@H](Cc1ccccc1)NC(=O)OC(C)(C)C [CatKI-II, 1-(N-Benzyloxycarbonyl-leucyl)-5-(N-Boc-phenylalanyl-leucyl) carbohydrazide]
Tukey's multiple comparisons test, Summary ([1]; Table 1, D 3, 30 vs. 300 ng/mm^2): ns | Tukey's multiple comparisons test, Summary ([1]; Table 1, D 3, Vehicle vs. 300 ng/mm^2): ns | Tukey's multiple comparisons test, Summary ([1]; Table 1, D 7, 30 vs. 300 ng/mm^2): ns | Tukey's multiple comparisons test, Summary ([1]; Table 1, D 7, Vehicle vs. 300 ng/mm^2): ns | Tukey's multiple comparisons test, Summary ([1]; Table 1, D 7, Vehicle vs. 30 μg/mm^2): ns | Tukey's multiple comparisons test, Summary ([1]; Table 1, D 14, Vehicle vs. 300 ng/mm^2): ns | Tukey's multiple comparisons test, Summary ([1]; Table 1, D 21, Vehicle vs. 300 ng/mm^2): ns | Tukey's multiple comparisons test, Summary ([1]; Table 2, D 3, 30 vs. 300 ng/mm^2): ns | Tukey's multiple comparisons test, Summary ([1]; Table 2, D 3, Vehicle vs. 300 ng/mm^2): ns | Tukey's multiple comparisons test, Summary ([1]; Table 2, D 7, 30 vs. 300 ng/mm^2): ns | Tukey's multiple comparisons test, Summary ([1]; Table 2, D 7, Vehicle vs. 300 ng/mm^2): ns | Tukey's multiple comparisons test, Summary ([1]; Table 2, D 7, Vehicle vs. 30 μg/mm^2): ns | Tukey's multiple comparisons test, Summary ([1]; Table 2, D 14, Vehicle vs. 300 ng/mm^2): ns | Tukey's multiple comparisons test, Summary ([1]; Table 2, D 21, Vehicle vs. 300 ng/mm^2): ns | wound closure ([1]; day 21 post-wounding): ~93% | wound closure / wound healing (in words) [1]: facilitate wound closure | wound closure / wound healing (in words) ([1]; listed as Cathepsin K inhibitor II): promotes wound healing | wound area: improvement in wound healing ([1]; lower dose 30 ng/mm^2/wound, day 21 post-wounding): statistically significant improvement in wound healing compared to both vehicle and the higher dose | fibroblast migration / monolayer wound closure [2]: increased migration beyond that observed in the cells treated with a low-glucose media | wound resolution ([3]; day 12): significant resolution of wound | wound resolution ([3]; day 15): almost complete resolution
